The values that follow come from patent US12319913B2, “5-halouracil-modified microRNAs and their use in the treatment of cancer” (The Research Foundation for The State University of New York, priority 2018, dated 2025).

[5FU] = 5-fluorouracil base replacing uracil

The subject of one data set is TS, BCL2 and E2F3. The experiment in a line: Western immunoblot of miR-129 targets in HCT-116 cells. Format: cell-based, human. The conditions noted are these: colon cancer HCT-116 cells. On the procedure: Western immunoblot analysis: Forty-eight hours after transfection, equal amounts of protein (15 μg) extracted from cells lysed in RIPA buffer with protease inhibitor (Sigma) and were separated on 10%-12% sodium dodecyl sulfate-polyacrylamide gels using standard procedures. The primary antibodies used for the analysis were rabbit anti-YAP1 monoclonal antibody (1:10000) (Cell Signaling Technologies), anti-DLCK1 (1:500) (Abcam), anti-BCL2 (1:500) (NeoMarkers), anti-MDC1 (1:500), anti-SUZ12 (1:500), anti-pChk-1 (1:500), anti beta-actin (1:500), anti-BMI-1 (1:10000) (Cell Signaling Technologies), mouse anti-human TS antibody (1:500), anti-α-tubulin (1:50000) (Santa Cruz Biotech Inc.), anti-GAPDH (1:100000) (Santa Cruz Biotech Inc.), anti-E2F3 (1:500) (Santa Cruz Biotech Inc.), Horseradish peroxidase-conjugated antibodies against mouse or rabbit (1:5000, Santa Cruz Biotech Inc.) were used as the secondary antibodies. Protein bands were visualized with autoradiography film using SuperSignal West Pico Chemiluminescent Substrate (Thermo Fischer). Western blot density was quantified using Image J software.
Background: A western blot detects proteins with antibodies after separation by electrophoresis.

Data set [1] relates to HCT116 derived colon cancer stem cells. Format: cell-based. On the procedure:
(§1) For transfections, 1×10^5 cells were plated in six-well plates and transfected with 100 nM of control non-specific miRNA (Thermo Fischer), a modified microRNA, or exogenous native microRNA after 24 hours using Oligofectamine (Thermo Fischer) following the manufacturer's protocols. For reagent free transfection, cells were plated in 6 well plates at (1×10^5) cells per well. Twenty-four hours later 100 pmol miRNA (Control, miR-15a, Mimic-1) were diluted in Optimem (Thermo Fischer) and added to the plate. Media was changed after 24 hours. Media was supplemented with 10% fetal bovine serum (Thermo Fischer). Briefly, cells were cultured in growth media (DMEM/F12 supplemented with B27, 10 ng/mL bFGF, and 20 ng/mL EGF (Life Technologies) in ultra-low attachment flasks) for up to 6 days. The spheroid cells were maintained by collection through gentle centrifugation, dissociation to single cells and replating.
miR-129 mimics eliminated chemotherapy resistant colon cancer stem cells. To determine the impact of certain exemplary modified microRNAs of the present disclosure (i.e., miR-129 mimics) on 5-FU resistant colon cancer stem cells, HCT116 derived colon cancer stem cells were treated with various concentrations of Mimic-1 or 5-FU.

The next data set has as its system SW480 colon cancer cells. The experiment in a line: WST-1 cell proliferation assay, SW480. Conditions: SW480, in words, vs controls. In kind it is cell-based, human. On the procedure:
as §1, with “The spheroid cells were maintained by collection through gentle centrifugation, dissociation to single cells and replating.” left out
Cell proliferation assay: Twenty-four hours after transfection, cells were seeded in 96-well plates at a density of 2000 cells per well. The cell proliferation assay was performed on days 1 to 5 by incubating 10 μl WST-1 (Roche Applied Science, Mannheim, Germany) in the culture medium for 1 h and reading the absorbance at 450 and 630 nm. The cell proliferation rate was calculated by subtracting the absorbance at 450 nm from the absorbance at 630 nm. […] The O.D. was calculated by subtracting the absorbance at 630 nm from that at 450 nm. […]
On the technique in general: Tetrazolium dyes change colour on reduction, which living cells bring about.

“CU^FU^FU^FU^FU^FGCGGU^FCU^FGGGCU^FU^FGC (CUUUUUGCGGUCUGGGCUUGC; RNA, [5FU] at 2, 3, 4, 5, 6, 11, 13, 18, 19, backbone not given here) [modified miR-129]”: in the data set on TS, BCL2 and E2F3 (Western immunoblot), the “target specificity to TS, BCL2 and E2F3” value is given as “retain their target specificity”. The “reducing the expression levels of TS, BCL2 and E2F3” value in the data set on TS, BCL2 and E2F3 (compared with unmodified (control) miR-129) was “more potent than unmodified (control) miR-129”. The “proliferation of HCT116 colon cancer stem cells” value in data set [1] (25 nM, day 6) was “nearly completely blocked”. Moreover, in data set [1] (100 nM), the “elimination of 5-FU resistant colon cancer stem cells” value is “over 80%”. In addition, the “killing of 5-FU resistant cancer stem cells, dose dependence” value in data set [1] (increasing concentrations, FIG. 6) is “killed 5-FU resistance cancer stem cells in a dose dependent manner”. In the data set on SW480 colon cancer cells, the “inhibition of colon cancer cell proliferation” value is given as “inhibition of colon cancer cell proliferation”.
